How the values were obtained:
Mus musculus [1] = test: Time-dependent effect on 8-OH-DPAT-induced hypothermia (change in body temperature) after 15 min, in mice at 0.5 mg/kg dose; assay type: functional
[2] = target: T1, 5-hydroxytryptamine receptor 1A (Rattus norvegicus, UniProt P19327); test: Binding affinity to 5-hydroxytryptamine 1A receptor (5-HT 1A receptor, serotonin receptor) from rat cortex using [3H]8-OH-DPAT as radioligand
T1 sequence (P19327 whole entry): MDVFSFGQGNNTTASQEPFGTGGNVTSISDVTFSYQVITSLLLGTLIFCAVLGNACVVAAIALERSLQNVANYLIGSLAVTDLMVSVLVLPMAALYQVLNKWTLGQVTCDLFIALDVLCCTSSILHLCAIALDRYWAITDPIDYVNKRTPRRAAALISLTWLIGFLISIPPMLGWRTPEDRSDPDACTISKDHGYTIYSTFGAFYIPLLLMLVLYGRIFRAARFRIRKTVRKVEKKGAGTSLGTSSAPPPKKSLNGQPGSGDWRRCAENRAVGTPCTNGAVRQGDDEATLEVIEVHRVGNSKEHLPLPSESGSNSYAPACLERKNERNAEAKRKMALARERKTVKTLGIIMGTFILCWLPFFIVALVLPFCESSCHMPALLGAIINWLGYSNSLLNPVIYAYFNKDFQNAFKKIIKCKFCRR

Mus musculus [3] = test: Time-dependent effect on 8-OH-DPAT-induced hypothermia (change in body temperature) after 60 min, in mice at 5 mg/kg dose; assay type: functional
Mus musculus [4] = test: Effect on immobility time in the forced swimming test (FST) in mice at 10 mg/kg dose; assay type: functional
[5] = target: T2, 5-hydroxytryptamine receptor 1A (Homo sapiens) (UniProt P08908); conditions: HeLa
T2 sequence (whole entry): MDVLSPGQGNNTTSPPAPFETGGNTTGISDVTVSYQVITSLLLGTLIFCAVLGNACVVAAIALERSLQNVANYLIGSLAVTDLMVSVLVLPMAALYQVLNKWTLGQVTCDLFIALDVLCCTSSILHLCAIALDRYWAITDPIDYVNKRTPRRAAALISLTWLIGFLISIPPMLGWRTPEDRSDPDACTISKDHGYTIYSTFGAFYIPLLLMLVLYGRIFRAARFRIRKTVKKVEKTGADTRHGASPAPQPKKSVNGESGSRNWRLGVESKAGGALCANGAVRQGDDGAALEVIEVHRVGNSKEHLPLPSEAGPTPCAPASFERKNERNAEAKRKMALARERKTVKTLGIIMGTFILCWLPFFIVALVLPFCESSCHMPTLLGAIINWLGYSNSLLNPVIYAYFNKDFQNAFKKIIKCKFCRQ

Rattus norvegicus = test: Effect on helpless behavior in rats and the number of escape failures was determined in shuttle-box session-2 (SB-2) at 1 mg/kg dose; assay type: functional
Mus musculus [6] = test: Time-dependent effect on 8-OH-DPAT-induced hypothermia (change in body temperature) after 15 min, in mice at 5 mg/kg dose; assay type: functional
[7] = target: Sodium-dependent serotonin transporter (Rattus norvegicus, UniProt P31652); test: Binding affinity towards Serotonin transporter from rat cortex measured using [3H]paroxetine; conditions: read-out: Ki
Mus musculus [8] = test: Time-dependent effect on 8-OH-DPAT-induced hypothermia (change in body temperature) after 60 min, in mice at 0.5 mg/kg dose; assay type: functional
Mus musculus [9] = test: Effect on immobility time in the forced swimming test (FST) in mice at 0.1 mg/kg dose; assay type: functional
[10] = target: T3, Adrenergic receptor alpha-1 (Rattus norvegicus, UniProt P15823+P23944+P43140); test: Affinity towards alpha-1 adrenergic receptor from rat cortex using [3H]prazosin radioligand (For prazosin Ki(nM)= […]+/-[…])
T3 sequence (P15823 whole entry): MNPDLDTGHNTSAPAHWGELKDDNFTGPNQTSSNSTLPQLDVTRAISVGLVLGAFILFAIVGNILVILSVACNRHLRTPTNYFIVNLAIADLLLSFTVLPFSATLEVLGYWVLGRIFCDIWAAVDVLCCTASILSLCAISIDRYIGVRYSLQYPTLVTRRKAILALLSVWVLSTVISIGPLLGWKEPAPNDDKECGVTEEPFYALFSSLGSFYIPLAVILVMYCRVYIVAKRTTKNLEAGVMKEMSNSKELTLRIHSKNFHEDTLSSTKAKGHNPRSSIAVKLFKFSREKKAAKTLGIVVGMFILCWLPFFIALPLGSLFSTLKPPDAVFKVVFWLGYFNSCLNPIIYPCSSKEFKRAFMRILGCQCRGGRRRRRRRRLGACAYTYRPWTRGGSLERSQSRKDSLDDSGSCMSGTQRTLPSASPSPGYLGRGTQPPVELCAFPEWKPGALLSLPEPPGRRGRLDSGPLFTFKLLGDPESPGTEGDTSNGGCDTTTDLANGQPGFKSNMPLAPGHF
T3 sequence (P23944 whole entry): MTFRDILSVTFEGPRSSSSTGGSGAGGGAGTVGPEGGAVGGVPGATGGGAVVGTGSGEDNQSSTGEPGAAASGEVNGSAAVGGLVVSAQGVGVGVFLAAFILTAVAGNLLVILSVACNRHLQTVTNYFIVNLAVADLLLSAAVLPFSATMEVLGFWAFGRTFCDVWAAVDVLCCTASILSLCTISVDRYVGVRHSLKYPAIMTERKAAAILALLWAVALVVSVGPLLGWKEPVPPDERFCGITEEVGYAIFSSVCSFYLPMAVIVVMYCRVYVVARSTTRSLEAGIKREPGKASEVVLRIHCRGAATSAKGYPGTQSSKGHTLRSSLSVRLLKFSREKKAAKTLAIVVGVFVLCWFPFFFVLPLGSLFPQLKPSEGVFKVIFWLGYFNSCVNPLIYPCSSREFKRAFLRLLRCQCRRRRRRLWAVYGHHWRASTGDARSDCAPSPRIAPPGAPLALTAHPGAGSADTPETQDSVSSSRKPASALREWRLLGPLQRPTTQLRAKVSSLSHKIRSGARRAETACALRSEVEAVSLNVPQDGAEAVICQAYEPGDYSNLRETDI
T3 sequence (P43140 whole entry): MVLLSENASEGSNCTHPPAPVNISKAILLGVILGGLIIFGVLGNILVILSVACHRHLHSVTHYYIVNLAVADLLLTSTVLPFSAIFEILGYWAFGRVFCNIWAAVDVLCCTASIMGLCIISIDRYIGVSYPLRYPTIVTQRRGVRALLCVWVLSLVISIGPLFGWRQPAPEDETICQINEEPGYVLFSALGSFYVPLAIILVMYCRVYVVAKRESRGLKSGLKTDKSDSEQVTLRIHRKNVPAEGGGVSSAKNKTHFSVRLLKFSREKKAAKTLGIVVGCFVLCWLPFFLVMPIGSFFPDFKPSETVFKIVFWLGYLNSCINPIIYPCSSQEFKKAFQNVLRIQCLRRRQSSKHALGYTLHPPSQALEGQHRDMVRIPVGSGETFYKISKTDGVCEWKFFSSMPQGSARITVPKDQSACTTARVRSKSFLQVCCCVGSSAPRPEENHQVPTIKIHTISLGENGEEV

Mus musculus [11] = test: Time-dependent effect on 8-OH-DPAT-induced hypothermia (change in body temperature) after 60 min, in mice at 0.1 mg/kg dose; assay type: functional

Sequence of Sodium-dependent serotonin transporter (P31652 whole entry): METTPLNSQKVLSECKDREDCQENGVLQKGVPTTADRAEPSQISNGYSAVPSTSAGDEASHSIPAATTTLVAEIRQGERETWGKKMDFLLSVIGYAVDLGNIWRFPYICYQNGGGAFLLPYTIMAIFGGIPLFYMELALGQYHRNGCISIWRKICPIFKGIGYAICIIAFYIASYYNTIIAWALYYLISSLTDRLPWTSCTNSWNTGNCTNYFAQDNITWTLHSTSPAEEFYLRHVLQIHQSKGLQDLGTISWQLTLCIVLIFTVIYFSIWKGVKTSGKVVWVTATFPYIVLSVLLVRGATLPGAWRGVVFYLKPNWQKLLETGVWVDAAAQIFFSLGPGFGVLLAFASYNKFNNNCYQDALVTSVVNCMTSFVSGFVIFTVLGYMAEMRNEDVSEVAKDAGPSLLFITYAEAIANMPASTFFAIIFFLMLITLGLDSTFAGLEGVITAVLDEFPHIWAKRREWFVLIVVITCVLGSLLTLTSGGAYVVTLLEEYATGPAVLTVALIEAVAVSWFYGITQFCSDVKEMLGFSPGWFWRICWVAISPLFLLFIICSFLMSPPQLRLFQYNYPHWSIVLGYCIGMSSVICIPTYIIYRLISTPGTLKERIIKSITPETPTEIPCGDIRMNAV

cAMP [5] [pmol/well] | Ki [7] [nM] | Ki [10] [nM] | Ki [2] [nM] | Compound | Temperature change (Mus musculus [1]) [°C] | Ki ([2]; read-out: Ki) [nM] | Temperature change (Mus musculus [3]) [°C] | Immobility time (Mus musculus [4]) [s] | No. of escape failures (Rattus norvegicus) | Temperature change (Mus musculus [6]) [°C] | Temperature change (Mus musculus [8]) [°C] | Immobility time (Mus musculus [9]) [s] | Temperature change (Mus musculus [11]) [°C]
< 15.4 | 150 | 135 | – | COc1ccccc1N1CCN(CCC(Oc2cccc3ccccc23)c2ccsc2)CC1 (stereo unspecified) | -1.72 | 180 | -1.22 | <91.1 | 1.3 | -2.73 | -0.52 | 194.4 | -1.16
< 20.8 | 105 | 6 | 44 | COc1ccccc1N1CCN(CCC(=O)c2csc3ccccc23)CC1 | <-1.58 | – | -1.27 | <86.6 | <4 | -2.53 | <-0.47 | 141.4 | -1.13

Compound | cAMP [5] [pmol/well] | Ki [7] [nM] | Ki [10] [nM] | Ki [2] [nM] | Temperature change (Mus musculus [1]) [°C] | Ki ([2]; read-out: Ki) [nM] | Temperature change (Mus musculus [3]) [°C] | Immobility time (Mus musculus [4]) [s] | No. of escape failures (Rattus norvegicus) | Temperature change (Mus musculus [6]) [°C] | Temperature change (Mus musculus [8]) [°C] | Immobility time (Mus musculus [9]) [s] | Temperature change (Mus musculus [11]) [°C]
COc1ccccc1N1CCN(CCC(O)c2csc3ccccc23)CC1 (stereo unspecified) | 18.1 | 20 | 35 | – | -1.23 | 20 | -1.16 | 143.5 | 2.3 | -2.2 | -0.63 | <99.5 | -0.4

— ChEMBL document CHEMBL1134339, “New 1-aryl-3-(4-arylpiperazin-1-yl)propane derivatives, with dual action at 5-HT1A serotonin receptors and serotonin transporter, as a new class of antidepressants” (J Med Chem, 2001)
